Data taken from article PMC9186362, “Design and biological evaluation of substituted 5,7-dihydro-6H-indolo[2,3-c]quinolin-6-one as novel selective Haspin inhibitors” (Journal of Enzyme Inhibition and Medicinal Chemistry, 2022).

Legend:
[1] = molecular target: MET D1228H (Homo sapiens, UniProt P08581, D1228H); experiment: LanthaScreen Binding - Eu-anti-GST; settings: read-out: Percentage of inhibition
Method in brief: (§1)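 Percent inhibition values come from a one-concentration (1 μM) profiling run covering a wide set of kinases.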

[2] = molecular target: T1, PKN2 (PRK2) (Homo sapiens, UniProt Q16513); experiment: LanthaScreen Binding - Eu-anti-GST; settings: read-out: Percentage of inhibition
T1 construct: purchased Life Technologies
Method in brief: as §1

[3] = molecular target: T2, NEK8 (Homo sapiens, UniProt Q86SG6); experiment: LanthaScreen Binding - Eu-anti-GST; settings: read-out: Percentage of inhibition
T2 construct: purchased Life Technologies (SelectScreen Whole Panel service)
Method in brief: as §1

[4] = molecular target: T3, GRK1 (Homo sapiens, UniProt Q15835); experiment: LanthaScreen Binding - Eu-anti-GST; settings: read-out: Percentage of inhibition
T3 construct: purchased Life Technologies (SelectScreen Whole Panel)
Method in brief: as §1

[5] = molecular target: T4, TLK2 (Homo sapiens, UniProt Q86UE8); experiment: LanthaScreen Binding - Eu-anti-GST; settings: read-out: Percentage of inhibition
T4 construct: purchased Life Technologies (SelectScreen service)
Method in brief: as §1

[6] = molecular target: T5, MAP3K2 (MEKK2) (Homo sapiens, UniProt Q9Y2U5); experiment: LanthaScreen Binding - Eu-anti-GST; settings: read-out: Percentage of inhibition
T5 construct: purchased Life Technologies
Method in brief: as §1

[7] = molecular target: T6, BMPR1B (ALK6) (Homo sapiens, UniProt O00238); experiment: LanthaScreen Binding - Eu-anti-GST; settings: read-out: Percentage of inhibition
T6 construct: purchased Life Technologies (SelectScreen)
Method in brief: as §1

[8] = molecular target: CDK11 (Inactive) (Homo sapiens, UniProt Q9BWU1); experiment: LanthaScreen Binding - Eu-anti-GST; settings: read-out: Percentage of inhibition
Method in brief: as §1

[9] = molecular target: T7, CAMKK2 (CaMKK beta) (Homo sapiens, UniProt Q96RR4); experiment: LanthaScreen Binding - Eu-anti-GST; settings: read-out: Percentage of inhibition
T7 construct: purchased Life Technologies (SelectScreen Whole Panel service)
Method in brief: as §1

[10] = molecular target: T8, KIT D816V (Homo sapiens, UniProt P10721, D816V); experiment: LanthaScreen Binding - Eu-anti-GST; settings: read-out: Percentage of inhibition
T8 construct: purchased Life Technologies (SelectScreen service)
Method in brief: as §1

[11] = molecular target: T9, MYLK4 (Homo sapiens, UniProt Q86YV6); experiment: LanthaScreen Binding - Eu-anti-GST; settings: read-out: Percentage of inhibition
T9 construct: purchased Life Technologies (SelectScreen Whole Panel)
Method in brief: as §1

[12] = molecular target: ICK (Homo sapiens, UniProt Q9UPZ9); experiment: LanthaScreen Binding - Eu-anti-GST; settings: read-out: Percentage of inhibition
Method in brief: as §1

[13] = molecular target: KIT T670E (Homo sapiens, UniProt P10721, T670E); experiment: LanthaScreen Binding - Eu-anti-GST; settings: read-out: Percentage of inhibition
Method in brief: as §1

[14] = molecular target: PKMYT1 (Homo sapiens, UniProt Q99640); experiment: LanthaScreen Binding - Eu-anti-GST; settings: read-out: Percentage of inhibition
Method in brief: as §1

[15] = molecular target: T10, MYO3B (MYO3 beta) (Homo sapiens, UniProt Q8WXR4); experiment: LanthaScreen Binding - Eu-anti-GST; settings: read-out: Percentage of inhibition
T10 construct: purchased Life Technologies (SelectScreen Whole Panel)
Method in brief: as §1

[16] = molecular target: T11, VRK2 (Homo sapiens, UniProt Q86Y07); experiment: LanthaScreen Binding - Eu-anti-GST; settings: read-out: Percentage of inhibition
T11 construct: purchased Life Technologies (SelectScreen Whole Panel)
Method in brief: as §1

[17] = molecular target: TNK2 (ACK) (Homo sapiens, UniProt Q07912); experiment: LanthaScreen Binding - Eu-anti-GST; settings: read-out: Percentage of inhibition
Method in brief: as §1

[18] = molecular target: T12, TTK (Homo sapiens, UniProt P33981); experiment: LanthaScreen Binding - Eu-anti-GST; settings: read-out: Percentage of inhibition
T12 construct: purchased Life Technologies
Method in brief: as §1

[19] = molecular target: T13, KIT V559D T670I (Homo sapiens, UniProt P10721, T670I/V559D); experiment: LanthaScreen Binding - Eu-anti-GST; settings: read-out: Percentage of inhibition
T13 construct: purchased Life Technologies
Method in brief: as §1

[20] = molecular target: CDK2/cyclin E1 (Homo sapiens, UniProt P24941); experiment: LanthaScreen Binding - Eu-anti-GST; settings: read-out: Percentage of inhibition
Method in brief: as §1

[21] = molecular target: HsPIM1 (Homo sapiens, UniProt P11309); experiment: ADP-Glo kinase assay; assay type: biochemical, Homo sapiens (Hs); settings: mean n = 2, % of maximum activity of DMSO control, read-out: % Residual activity at 1 μM PIM1
Experimental: Kinase activities were determined using the ADP-Glo methodology (ADP-Glo Kinase Assay; Promega) according to the assay described by Nguyen et al.[32] except for MmCLK1. The later was assayed in the following buffer: 10 mM MgCl2, 1 mM EGTA, 1 mM DTT, 25 mM Tris-HCl pH 7.5, 50 µg/ml heparin, 0.15 mg/ml BSA, with 0.027 µg/µl of the following peptide: GRSRSRSRSRSR as substrate.

[22] = test system: RPE1 cell line; experiment: Cell viability MTS assay, dose-response; assay type: cell-based; settings: Homo sapiens, RPE-1; 48 h, MTS assay in triplicate, doses up to 50 µM
Experimental: (§2) HCT116 cells were cultured in McCoy’s medium. SH-SY5Y, MDA-MB231 and U-2 OS cells were cultured in Dulbecco's modified Eagle's medium (DMEM) and hTERT RPE-1 cells in DMEM:F12 medium. All media were supplemented with 10% foetal calf serum and cells were cultured at 37 °C in a 5% CO2 humidified atmosphere.
(§3) Cell viability was then assessed using the CellTiter96 AQueous cell proliferation assay from Promega according to the manufacturer’s instructions. Each experiment was done in triplicate and EC50 were determined from the dose-response curves according to the signal given by the control (0.1% DMSO) set at 100% viability using Prism GraphPad software.

[23] = test system: U-2 OS cell line; experiment: Cell viability MTS assay, dose-response; assay type: cell-based; settings: Homo sapiens, U2OS; 48 h, MTS assay in triplicate, doses up to 50 µM
Experimental: as §2, §3

T10 sequence (Q8WXR4 whole entry): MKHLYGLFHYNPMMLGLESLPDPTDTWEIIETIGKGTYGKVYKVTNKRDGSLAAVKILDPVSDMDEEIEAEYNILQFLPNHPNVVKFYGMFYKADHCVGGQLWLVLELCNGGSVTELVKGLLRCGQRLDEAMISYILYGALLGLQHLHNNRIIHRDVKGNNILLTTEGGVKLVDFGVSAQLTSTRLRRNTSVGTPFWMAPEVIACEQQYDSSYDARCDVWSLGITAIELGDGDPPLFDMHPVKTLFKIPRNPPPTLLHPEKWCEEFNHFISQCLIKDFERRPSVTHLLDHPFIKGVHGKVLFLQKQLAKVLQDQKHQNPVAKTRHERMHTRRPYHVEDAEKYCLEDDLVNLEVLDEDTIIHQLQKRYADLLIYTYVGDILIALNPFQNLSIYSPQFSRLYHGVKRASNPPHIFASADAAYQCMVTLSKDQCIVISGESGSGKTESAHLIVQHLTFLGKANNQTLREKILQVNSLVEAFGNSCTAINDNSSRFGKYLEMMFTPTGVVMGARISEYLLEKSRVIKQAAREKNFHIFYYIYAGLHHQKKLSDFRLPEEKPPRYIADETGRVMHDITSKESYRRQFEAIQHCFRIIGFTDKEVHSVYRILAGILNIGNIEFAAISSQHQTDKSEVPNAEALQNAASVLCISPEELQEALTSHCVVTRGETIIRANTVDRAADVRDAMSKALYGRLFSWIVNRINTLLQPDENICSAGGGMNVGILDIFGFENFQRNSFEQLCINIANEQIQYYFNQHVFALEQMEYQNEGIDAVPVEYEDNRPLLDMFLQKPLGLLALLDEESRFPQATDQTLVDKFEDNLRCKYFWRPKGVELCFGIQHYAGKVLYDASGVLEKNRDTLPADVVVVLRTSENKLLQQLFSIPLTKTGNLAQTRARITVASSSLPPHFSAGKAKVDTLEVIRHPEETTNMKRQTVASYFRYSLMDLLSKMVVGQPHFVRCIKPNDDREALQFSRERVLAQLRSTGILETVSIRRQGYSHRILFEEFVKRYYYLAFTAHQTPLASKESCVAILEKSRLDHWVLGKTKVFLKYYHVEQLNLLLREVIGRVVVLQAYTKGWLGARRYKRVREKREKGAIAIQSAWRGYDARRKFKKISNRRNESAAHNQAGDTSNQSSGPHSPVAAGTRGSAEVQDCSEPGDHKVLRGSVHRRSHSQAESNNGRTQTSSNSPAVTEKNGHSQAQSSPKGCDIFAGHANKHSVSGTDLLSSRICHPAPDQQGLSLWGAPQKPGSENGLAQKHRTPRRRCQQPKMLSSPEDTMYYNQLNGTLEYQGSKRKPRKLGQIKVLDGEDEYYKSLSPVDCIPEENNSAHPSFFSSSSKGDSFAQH
T11 sequence (Q86Y07 whole entry): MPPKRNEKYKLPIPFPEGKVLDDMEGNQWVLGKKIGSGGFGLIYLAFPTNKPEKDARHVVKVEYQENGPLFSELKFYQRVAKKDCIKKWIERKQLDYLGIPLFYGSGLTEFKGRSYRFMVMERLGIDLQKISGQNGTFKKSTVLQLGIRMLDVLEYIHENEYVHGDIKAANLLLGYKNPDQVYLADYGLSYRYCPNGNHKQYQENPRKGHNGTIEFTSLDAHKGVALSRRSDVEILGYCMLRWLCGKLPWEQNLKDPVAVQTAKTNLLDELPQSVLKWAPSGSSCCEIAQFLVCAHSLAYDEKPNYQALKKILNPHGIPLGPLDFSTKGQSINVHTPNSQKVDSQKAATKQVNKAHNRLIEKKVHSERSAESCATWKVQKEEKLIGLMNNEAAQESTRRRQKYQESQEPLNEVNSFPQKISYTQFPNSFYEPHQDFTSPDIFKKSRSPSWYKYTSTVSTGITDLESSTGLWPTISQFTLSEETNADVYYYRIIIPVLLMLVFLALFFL
T3 sequence (Q15835 whole entry): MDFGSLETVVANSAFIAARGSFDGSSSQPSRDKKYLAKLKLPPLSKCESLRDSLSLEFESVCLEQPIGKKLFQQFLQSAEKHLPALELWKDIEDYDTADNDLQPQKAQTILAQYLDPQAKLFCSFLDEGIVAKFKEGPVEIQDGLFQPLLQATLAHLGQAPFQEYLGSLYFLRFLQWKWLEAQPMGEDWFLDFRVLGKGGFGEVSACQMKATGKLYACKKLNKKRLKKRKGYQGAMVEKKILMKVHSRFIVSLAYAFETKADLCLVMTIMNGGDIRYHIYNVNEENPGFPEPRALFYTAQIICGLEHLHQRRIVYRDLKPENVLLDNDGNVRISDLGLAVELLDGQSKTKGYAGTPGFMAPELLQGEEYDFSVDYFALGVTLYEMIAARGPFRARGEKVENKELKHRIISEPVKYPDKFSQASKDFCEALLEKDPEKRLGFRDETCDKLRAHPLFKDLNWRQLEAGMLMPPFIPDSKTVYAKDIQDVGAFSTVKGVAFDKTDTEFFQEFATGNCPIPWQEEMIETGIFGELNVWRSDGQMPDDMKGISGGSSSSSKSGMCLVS
T13 sequence (P10721 26-976 V559D/T670I): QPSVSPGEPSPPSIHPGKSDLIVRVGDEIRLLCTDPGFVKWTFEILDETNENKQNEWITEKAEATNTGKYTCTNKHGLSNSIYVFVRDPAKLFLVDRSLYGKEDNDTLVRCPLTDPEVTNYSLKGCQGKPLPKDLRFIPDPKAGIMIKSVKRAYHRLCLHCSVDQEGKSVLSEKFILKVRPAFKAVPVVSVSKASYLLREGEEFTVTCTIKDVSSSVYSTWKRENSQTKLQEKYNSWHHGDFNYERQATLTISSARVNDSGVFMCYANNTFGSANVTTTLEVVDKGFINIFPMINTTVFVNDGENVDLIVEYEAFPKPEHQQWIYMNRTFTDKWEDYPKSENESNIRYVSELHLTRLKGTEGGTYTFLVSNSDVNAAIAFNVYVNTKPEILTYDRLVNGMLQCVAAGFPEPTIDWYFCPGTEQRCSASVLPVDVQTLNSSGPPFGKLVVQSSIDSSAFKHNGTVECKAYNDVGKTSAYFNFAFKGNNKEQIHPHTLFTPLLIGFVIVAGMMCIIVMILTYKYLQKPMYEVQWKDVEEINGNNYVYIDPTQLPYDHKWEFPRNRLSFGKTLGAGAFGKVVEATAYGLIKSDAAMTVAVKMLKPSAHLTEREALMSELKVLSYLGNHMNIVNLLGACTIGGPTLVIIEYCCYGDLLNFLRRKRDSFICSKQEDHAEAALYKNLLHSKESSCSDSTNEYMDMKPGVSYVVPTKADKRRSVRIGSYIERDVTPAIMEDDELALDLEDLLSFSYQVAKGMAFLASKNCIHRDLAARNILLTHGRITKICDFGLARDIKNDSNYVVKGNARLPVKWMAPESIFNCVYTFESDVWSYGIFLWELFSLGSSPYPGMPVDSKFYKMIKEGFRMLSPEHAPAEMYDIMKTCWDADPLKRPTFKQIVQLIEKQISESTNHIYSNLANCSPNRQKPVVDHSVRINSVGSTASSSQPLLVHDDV
T8 sequence (P10721 26-976 D816V): as the sequence (P10721 26-976 V559D/T670I) above, with D534V, I645T, D791V counted along it
T12 sequence (P33981 whole entry): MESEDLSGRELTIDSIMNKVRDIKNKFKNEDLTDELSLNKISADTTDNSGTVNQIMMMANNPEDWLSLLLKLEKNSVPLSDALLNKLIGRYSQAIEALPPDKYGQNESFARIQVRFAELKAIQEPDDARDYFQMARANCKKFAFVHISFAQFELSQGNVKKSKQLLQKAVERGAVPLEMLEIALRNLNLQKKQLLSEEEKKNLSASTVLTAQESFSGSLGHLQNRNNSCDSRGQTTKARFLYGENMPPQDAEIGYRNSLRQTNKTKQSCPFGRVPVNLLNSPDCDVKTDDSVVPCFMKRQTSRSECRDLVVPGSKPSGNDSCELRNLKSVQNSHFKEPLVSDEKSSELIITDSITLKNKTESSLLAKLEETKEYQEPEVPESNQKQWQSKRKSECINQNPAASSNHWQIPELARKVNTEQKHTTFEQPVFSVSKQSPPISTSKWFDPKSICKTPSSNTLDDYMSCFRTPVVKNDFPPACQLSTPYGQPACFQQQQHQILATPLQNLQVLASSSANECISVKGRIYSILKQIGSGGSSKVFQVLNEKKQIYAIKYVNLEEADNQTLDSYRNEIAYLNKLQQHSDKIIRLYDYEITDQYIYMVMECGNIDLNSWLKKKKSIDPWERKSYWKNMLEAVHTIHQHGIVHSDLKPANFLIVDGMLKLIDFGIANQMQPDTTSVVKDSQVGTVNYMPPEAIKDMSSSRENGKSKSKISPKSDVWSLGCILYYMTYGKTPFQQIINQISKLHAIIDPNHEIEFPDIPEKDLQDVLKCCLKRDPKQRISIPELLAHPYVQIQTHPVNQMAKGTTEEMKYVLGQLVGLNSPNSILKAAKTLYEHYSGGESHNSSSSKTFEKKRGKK
T9 sequence (Q86YV6 whole entry): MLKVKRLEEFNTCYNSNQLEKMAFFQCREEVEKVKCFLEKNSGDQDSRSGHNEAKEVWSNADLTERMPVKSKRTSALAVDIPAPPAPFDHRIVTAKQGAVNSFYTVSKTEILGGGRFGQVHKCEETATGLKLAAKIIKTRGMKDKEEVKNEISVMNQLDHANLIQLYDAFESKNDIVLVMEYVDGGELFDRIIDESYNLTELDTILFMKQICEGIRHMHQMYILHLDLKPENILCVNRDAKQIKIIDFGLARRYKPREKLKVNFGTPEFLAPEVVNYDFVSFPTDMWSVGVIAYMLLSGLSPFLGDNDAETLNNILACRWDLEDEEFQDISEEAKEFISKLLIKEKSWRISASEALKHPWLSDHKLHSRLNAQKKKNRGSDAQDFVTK
HsPIM1, sequence (P11309 whole entry): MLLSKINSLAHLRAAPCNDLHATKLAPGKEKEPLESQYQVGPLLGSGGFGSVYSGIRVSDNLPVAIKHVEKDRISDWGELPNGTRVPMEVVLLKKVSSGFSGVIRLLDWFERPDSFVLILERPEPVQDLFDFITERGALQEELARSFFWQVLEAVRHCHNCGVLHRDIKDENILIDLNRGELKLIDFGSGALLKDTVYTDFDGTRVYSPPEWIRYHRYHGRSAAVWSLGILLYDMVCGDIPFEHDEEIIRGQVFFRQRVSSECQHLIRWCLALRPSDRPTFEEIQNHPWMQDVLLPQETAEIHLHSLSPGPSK
KIT T670E, sequence (P10721 26-976 T670E): as the sequence (P10721 26-976 V559D/T670I) above, with D534V, I645E counted along it

For `COc1ccc2[nH]c3c(=O)[nH]c4ccc(O)cc4c3c2c1` [Compound 55, 2-Hydroxy-10-methoxy-5,7-dihydro-6H-indolo[2,3-c]quinolin-6-one], the inhibition at 1 µM [1] was 14%, the inhibition at 1 µM [2] was 32% and the inhibition at 1 µM [3] was 16%. It also gave an inhibition at 1 µM [4] of 50%, an inhibition at 1 µM [5] of 88% and an inhibition at 1 µM [6] of 42%. The inhibition at 1 µM [7] was 8%, the inhibition at 1 µM [8] was 13% and the inhibition at 1 µM [9] was 10%. The inhibition at 1 µM [10] was 77%, the inhibition at 1 µM [11] was 111% and the inhibition at 1 µM [12] was 57%. It also gave an inhibition at 1 µM [13] of 63%, an inhibition at 1 µM [14] of 14% and an inhibition at 1 µM [15] of 53%. It also gave an inhibition at 1 µM [16] of 54%, an inhibition at 1 µM [17] of 15% and an inhibition at 1 µM [18] of 42%. It also gave an inhibition at 1 µM [19] of 32%, an inhibition at 1 µM [20] of 64% and a remaining activity at 1 µM [21] of 22%. For the same compound, the EC50 [22] was 10.7 µM and the EC50 [23] was 3.4 µM.
